Reference: patent publication US20110110886A1, “SMALL MOLECULE INHIBITORS OF AUTOTAXIN AND METHODS OF USE” (Yale University, priority 2008, published 2011)

How the values were obtained:
[1] = oral doses of 50 mg/kg in 3 divided alternate daily doses for 5 days; rabbits, dogs, and humans; cited from earlier work
[2] = tested on: human melanoma cell line A2058; assay: Melanoma invasion and metastasis in vivo, nude mice with subcutaneous A2058; conditions: oral gavage of bithionol-cyclodextrin suspension
Method: (§1) Nude mice were inoculated with human melanoma cell line A2058 subcutaneously in the right flank and observed until the tumor was palpable (about 5-8 days). The mice were then treated with oral gavage of a bithionol-cyclodextrin suspension (A-D) or a cyclodextrin suspension alone (E-H). […] Two of the untreated mice developed large tumors in the right hindquarter (cyan arrow, E) that grossly invaded the right gluteous maximus and could not be dissected without amputation (E&F). […] Of the remaining untreated mice, one developed a modest sized tumor with microscopic evidence of invasion, and a one developed a tumor without gross or microscopic evidence of invasive tumor.
as §1, with “The present invention was also tested in vivo. Nude” for “Nude”

ATX lyso-PLD activity = biological target: T1, ATX lyso-PLD activity (Homo sapiens, UniProt Q13822); assay: Time course assay of ATX lyso-PLD activity (FS-3 fluorescent product) with or without 10 μM compound over 30 minutes; assay type: biochemical; conditions: 10 μM inhibitor, 30 minute interval, 300 nM ATX
T1 construct: consistent with a mature, glycosylated form of the enzyme; TEV cleavage site (C); 9-His (C); 6-His (C); made in house; host or cells: High Five insect cells (baculovirus, p-DEST-8)
Method: C. Structure of hexachlorophene, merbromin. Bithionol and their analogs -2,2′-Methylenebis(4-chlorophenol), Eosin Y and RJC 03297, respectively. D. Structure of NSC 48300 and its analogs. […] The assay conditions are 300 nM ATX in the presence or absence of 10 μM compound over 30 minutes.
Inhibitor screen: High throughput screens were performed against two libraries: the GenPlus library of 960 compounds (NINDS Custom Collection, MicroSource Discovery systems) and the NCI Diversity Set (1990 compounds, see http://dtp.nci.nih.gov/branches/dscb/repo_open.html). The screens were performed at the Yale Center for Chemical Genomics utilizing a Tecan Aquarius robot in combination with an Aquarius liquid handler and a Freedom EVO Workstation. A V&P Scientific 384 pin tool transferred small molecules (10 mM stock) from library plates into the optically clear, 384 well assay plates, and an Aquarius liquid handling robot transferred protein into the individual wells. The assays were performed in a total volume of 50 μL in assay buffer (50 mM Tris, 140 mM NaCl, 1 mM MgCl2, and 5 mM CaCl2, pH 8.0). Absorbance of p-nitrophenylate, the product of ATX's PDE activity with pNP-TMP (discussed below) was measured at 405 nm over a period of 12 hours. To monitor lysophospholipase-D activity, the fluorescence of FS-3 (625 nM or 4 μM) was monitored (λex=480 nm, λem=535 nm) in assay buffer over a period of 30 minutes in the presence of 300 nM ATX and 10 μM compound. The assay was evaluated using a statistical Z′ analysis, a quantitative measure to determine assay robustness for single point analysis on a high throughput screening platform. The Z′ analysis was performed from 32 maximum control values (c+) and 32 minimum controls (c−) on each plate. Assays consistently performed with Z′ factors of 0.75-0.85, higher than the minimum 0.5 considered robust.
Inhibition of ATX lyso-PLD activity by several NSC48300 analogs was qualitatively compared in a time course assay by measuring the production of fluorescent product in the presence or absence of 10 µM inhibitor over a 30 minute interval.

| Structure (SMILES) | serum levels [1] [µM] | microscopic appearance of the tumors [2] | gross evidence of metastatic melanoma upon necropsy ([2]; 5 mice) | less product formation when compared to the enzyme alone (ATX lyso-PLD activity) [%] |
| --- | --- | --- | --- | --- |
| Oc1c(Cl)cc(Cl)cc1Sc1cc(Cl)cc(Cl)c1O [Bithionol] | 140 to 550 | self-contained balls of tumor cells (C) with a pushing border | lacked gross evidence of metastatic melanoma | – |
| O=[As](O)(O)c1ccc(Cc2ccc([As](=O)(O)O)cc2)cc1 [NSC 48300] | – | – | – | 98.0 |
